From ChEMBL document CHEMBL1138021, “Isoxazole carboxylic acids as protein tyrosine phosphatase 1B (PTP1B) inhibitors” (Bioorg Med Chem Lett, 2004)

Columns and labels:
[1] = molecular target: T1, Tyrosine-protein phosphatase non-receptor type 1 (Mus musculus, UniProt P35821); test: Binding affinity for mouse protein-tyrosine phosphatase 1B (PTP1B) expressed in COS 7 cells; format: cell-based
T1 sequence (P35821 whole entry): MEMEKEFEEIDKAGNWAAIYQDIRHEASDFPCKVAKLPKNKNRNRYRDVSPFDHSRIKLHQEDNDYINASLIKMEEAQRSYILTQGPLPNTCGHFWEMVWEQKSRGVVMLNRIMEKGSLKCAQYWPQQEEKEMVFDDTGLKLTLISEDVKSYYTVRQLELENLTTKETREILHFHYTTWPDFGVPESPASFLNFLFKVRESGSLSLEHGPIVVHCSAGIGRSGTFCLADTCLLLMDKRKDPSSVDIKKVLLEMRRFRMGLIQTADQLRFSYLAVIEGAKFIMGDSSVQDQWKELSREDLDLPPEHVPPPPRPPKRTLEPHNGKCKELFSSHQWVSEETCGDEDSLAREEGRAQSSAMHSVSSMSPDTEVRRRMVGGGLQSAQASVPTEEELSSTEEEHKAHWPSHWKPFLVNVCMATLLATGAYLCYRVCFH

[2] = molecular target: T2, Tyrosine-protein phosphatase non-receptor type 2 (Homo sapiens, UniProt P17706); test: Binding affinity for T-cell Protein tyrosine phosphatase (TCPTP)
T2 sequence (P17706 whole entry): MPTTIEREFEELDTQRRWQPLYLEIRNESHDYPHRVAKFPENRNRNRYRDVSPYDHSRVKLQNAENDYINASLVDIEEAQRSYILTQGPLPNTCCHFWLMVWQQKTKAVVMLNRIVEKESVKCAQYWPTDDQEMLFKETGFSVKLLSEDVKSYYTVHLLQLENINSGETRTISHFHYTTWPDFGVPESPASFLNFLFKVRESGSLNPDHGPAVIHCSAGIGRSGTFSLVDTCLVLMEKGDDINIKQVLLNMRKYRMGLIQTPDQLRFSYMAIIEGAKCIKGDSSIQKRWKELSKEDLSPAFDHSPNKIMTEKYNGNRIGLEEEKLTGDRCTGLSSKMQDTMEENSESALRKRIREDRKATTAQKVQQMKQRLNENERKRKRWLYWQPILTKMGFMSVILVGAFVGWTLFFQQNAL

| Structure (SMILES) | Ki [1] | Ki [2] |
| --- | --- | --- |
| COC(=O)c1c(O)cccc1OCCNc1cccc(-c2cc(C(=O)O)no2)c1 | 60.3 µM |  |
| COC(=O)c1c(O)cccc1OC/C=C/c1cccc(-c2onc(C(=O)O)c2CO)c1 | 0.92 µM | 19.2 µM |
| COC(=O)c1c(O)cccc1OC/C=C/c1ccc2c(c1)-c1onc(C(=O)O)c1CC2 | 11.5 µM |  |
| COC(=O)c1c(O)cccc1OC/C=C/c1cccc(-c2onc(C(=O)O)c2N)c1 | 2.1 µM |  |
| COC(=O)c1c(O)cccc1OCC(=O)Nc1cccc(-c2cc(C(=O)O)no2)c1 | 216 µM |  |
| COC(=O)c1c(O)cccc1OCC(O)Cc1cccc(-c2cc(C(=O)O)no2)c1 (stereo not drawn) | 122 µM |  |
| COC(=O)c1c(O)cccc1OCCCc1cccc(-c2cc(C(=O)O)no2)c1 | 23 µM |  |
